From US20250034171A1, “IMIDAZOPYRIDINE AMIDES AND RELATED COMPOUNDS FOR USE IN THE TREATMENT OF BACTERIAL INFECTIONS” (priority 2021, published 2025)
In brackets after ≈: the same amount, converted by molar mass. Where two headings read alike, the source gives them in different places.

Columns and labels:
[1] = Metabolic stability in liver microsomes (intrinsic clearance); assay type: in vitro ADME; conditions: microsomes
Description: The test compound was incubated under the generic condition (0.5 mg/ml microsomal protein, 1 mM NADPH, 1 mM MgCl2, and 0.1 M phosphate buffer, pH 7.4, 37° C.) at a defined substrate concentration (typically 1 μM) in liver microsomes of selected species across a time course (typically 0, 5, 10, 20, 40 and 60 minutes) at Cyprotex (Cheshire, UK). The liver microsomes, buffer and test compound will be pre-incubated for 5 minutes. The addition of the co-factor NADPH will initiate the reaction and the reaction was terminated by addition of acetonitrile. The samples were centrifuged prior to analysis by LC-MS/MS analysis. The relative amount of parent compound remaining in the active incubations vs. the control incubations (t=0 mins) for each compound was measured by peak area comparison. The in vitro metabolic half-life (t1/2) was calculated using the slope of the log-linear regression from the percentage parent compound remaining versus time relationship (κ), The in vitro intrinsic clearance (Cl^int) (μl/min/mg microsomal protein) was calculated using the in vitro metabolic half-life, incubation volume and the weight of microsomal protein in the incubation.

[2] = test system: Salmonella typhimurium Ames II Mixed Strains (TA7001-TA7006) and TA98; test: Genotoxicity assay (AmesIIb mutagenicity test); assay type: cell-based; also: key: an AmesIIb score of 1 shows no genotoxicity signals
From the text: The aim is to evaluate compounds (and/or their metabolites) for their ability to induce reverse mutations in a gene of histidine-requiring Salmonella typhimurium strains to produce histidine-independent strains of these bacteria, in the absence and in the presence of a mammalian metabolic activation system.
Point mutations were made in the histidine (His) operon in Salmonella typhimurium, rendering the bacteria incapable of producing histidine. These single base substitutions are positioned at strategic points within the His gene, resulting in his-organisms that cannot grow unless histidine is supplied. When a mutagenic event occurs, base substitutions within the His gene then cause the reversion of the his-Ames II™ strains to His.
A chemical's mutagenic potential is assessed by exposing these his-organisms to varying concentrations of chemical and selecting for the reversion event. Medium lacking histidine is used for this selection which allows only those cells that have undergone the his- to His reversion to survive and grow.
The assay may be performed using a kit and instructions from Xenometric. The two strains provided in the Xenometric kit are the Ames II™ Mixed Strains and TA98. The Ames II™ Mixed Strains contains an equimolar mixture of the Ames II™ TA7001-TA7006 strains. Individually, these strains are designed to revert by only one specific base-pair substitution out of six possible changes. Thus, when mixed, all six base substitution mutations can be represented in one culture. This kit also contains TA98 for the detection of frameshift mutations.

[3] = test system: Mycobacterium tuberculosis strain H37Rv; test: Test 2: MIC determination against M. tuberculosis, resazurin fluorescence; assay type: cell-based; conditions: Test 2, M. tuberculosis H37Rv; for MIC90: read-out: Bacterial activity MIC90; for IC50: read-out: Bacterial activity pMIC50 (converted)
[4] = mouse, pH 7.4, Metabolic Stability Half life (mouse, min.)
[5] = mouse, pH 7.4, mouse liver microsomes, read-out: Metabolic Stability (liver microsome intrinsic clearance) Clearance (mouse, μl/min./mg protein)
[6] = Mycobacterium tuberculosis, H37RV
[7] = human, pH 7.4, Metabolic Stability Half life (human, min.)
[8] = human, pH 7.4, human liver microsomes, read-out: Metabolic Stability (liver microsome intrinsic clearance) Clearance (human, μl/min./mg protein)

| SMILES | Metabolic Stability (liver microsome intrinsic clearance) Clearance (human, μl/min./mg protein) ([1]; human) [μl/min./mg protein] | Metabolic Stability Half life (human, min.) ([1]; human) [h] | Metabolic Stability (liver microsome intrinsic clearance) Clearance (mouse, μl/min./mg protein) ([1]; mouse) [μl/min./mg protein] | Metabolic Stability Half life (mouse, min.) ([1]; mouse) [h] | GeneTox AmesIIb Score [2] | Bacterial activity pMIC50 [3] | MIC90 [3] [µM] | half-life at 1 µM [1, 4] [h] | microsomal CLint at 1 µM [1, 5] [µL/min/mg] | GeneTox AmesIIb Score ([2]; Salmonella typhimurium) | MIC90 [3, 6] [µM] | IC50 [3, 6] [pM] | half-life at 1 µM [1, 7] [h] | microsomal CLint at 1 µM [1, 8] [µL/min/mg] |
| --- | --- | --- | --- | --- | --- | --- | --- | --- | --- | --- | --- | --- | --- | --- |
| O=C(NCc1ccc(-c2nc3n(n2)CCC(C(F)(F)F)C3)cc1)c1c(C(F)(F)F)nc2ncccn12 (single isomer, unassigned) [Compound 2a] | <7.7 | >3 | 11.4 | 2.02 | 1 | 7.648 | 0.086 (≈ 0.0438 µg/mL) | – | – | – | – | – | – | – |
| O=C(NCc1ccc(-c2nc3n(n2)CCC(C(F)(F)F)C3)cc1)c1c(C(F)(F)F)nc2ncccn12 (single isomer, unassigned) [Compound 2b] | <7.7 | >3 | 12.3 | 1.87 | 1 | 7.502 | 0.098 (≈ 0.0499 µg/mL) | – | – | – | – | – | – | – |
| CCc1nc2ncc(C)cn2c1C(=O)NCc1ccc(-c2cn3c(n2)CC(C(F)(F)F)CC3)cc1 (single isomer, unassigned) [Compound 3b] | 26.1 | 0.887 | 23.8 | 0.972 | 1 | 8.483 | 0.010 (≈ 0.00483 µg/mL) | – | – | – | – | – | – | – |
| CCc1nc2nc(C)ccn2c1C(=O)NCc1ccc(-c2nc3n(n2)CCC(C(F)(F)F)C3)cc1 (stereo not drawn) [Compound 5b] | – | – | <7.7 | >3 | 1 | 7.873 | 0.044 (≈ 0.0213 µg/mL) | – | – | – | – | – | – | – |
| CCc1nc2ncc(C)cn2c1C(=O)NCc1ccc(-c2nc3n(n2)CCC(C(F)(F)F)C3)c(C)n1 (stereo not drawn) [Compound 37] | – | – | – | – | – | – | – | > 2.8 | < 7.7 | 1 | 0.0035 (≈ 0.00174 µg/mL) | 12600 | – | – |
| CCc1nc2ncc(C)cn2c1C(=O)NCc1cc(C)c(-c2nc3n(n2)CCC(C(F)(F)F)C3)cn1 (stereo not drawn) [Compound 38] | – | – | – | – | – | – | – | > 3 | < 7.7 | 1 | 0.052 (≈ 0.0259 µg/mL) | 17000 | – | – |
| CCc1nc2ncc(C)cn2c1C(=O)NCc1ccc(-c2nc3n(n2)CCC(C(F)(F)F)C3)cn1 (stereo not drawn) [Compound 39] | – | – | – | – | – | – | – | > 3 | < 7.7 | 1 | 0.16 (≈ 0.0775 µg/mL) | 49000 | – | – |
| CCc1nc2ccc(F)cn2c1C(=O)NCc1ccc(-c2nc3n(n2)CC[C@H](C(F)(F)F)C3)cc1 [Compound 50] | – | – | – | – | – | – | – | 1.97 | 11.7 | 1 | 0.11 (≈ 0.0535 µg/mL) | 28200 | – | – |
| [2H]C([2H])([2H])c1cnc2nc(CC)c(C(=O)NCc3ccc(-c4nc5n(n4)CC[C@H](C(F)(F)F)C5)cc3)n2c1 [Compound 51] | – | – | – | – | – | – | – | > 3 | < 7.7 | 1 | 0.008 (≈ 0.00389 µg/mL) | 3160 | – | – |
| CCc1cnc2nc(CC)c(C(=O)NCc3ccc(-c4nc5n(n4)CC[C@@H](C(F)(F)F)C5)cc3)n2c1 [Compound 59] | – | – | – | – | – | – | – | 0.39 | 59.4 | 1 | 0.061 (≈ 0.0303 µg/mL) | 17800 | 0.0667 | 347 |
| CCc1cnc2nc(CC)c(C(=O)NCc3ccc(-c4nc5n(n4)CC[C@H](C(F)(F)F)C5)cc3)n2c1 [Compound 62] | – | – | – | – | – | – | – | 0.4 | 57.8 | 1 | 0.033 (≈ 0.0164 µg/mL) | 11000 | 0.0783 | 294 |
| CCc1nc2ncc(C)cn2c1C(=O)NCc1ccc(-c2cn3c(n2)CC(C)CC3)cc1 (stereo not drawn) [Compound 89] | – | – | – | – | – | – | – | > 3 | < 7.7 | 1 | 0.046 (≈ 0.0197 µg/mL) | 14100 | – | – |
| CCc1nc2nc(C)ccn2c1C(=O)NCc1ccc(-c2cn3c(n2)CC(C)CC3)cc1 (stereo not drawn) [Compound 91] | – | – | – | – | – | – | – | > 3 | < 7.7 | 1 | 0.48 (≈ 0.206 µg/mL) | 191000 | – | – |
| CCc1nc2ncc(C)cn2c1C(=O)NCc1ccc(-c2cc3n(n2)CCCC3)cc1 [Compound 95] | – | – | – | – | – | – | – | 0.978 | 0.012 | 1 | 0.011 (≈ 0.00456 µg/mL) | 3630 | > 9.33 | < 1.2 |
| CCc1nc2ncc(C)cn2c1C(=O)NCc1ccc(-c2nc3n(n2)CCC(COC)C3)cc1 (stereo not drawn) [Compound 102] | – | – | – | – | – | – | – | > 3 | < 7.7 | 1 | 0.058 (≈ 0.0267 µg/mL) | 25700 | – | – |
| CCc1nc2ncc(C)cn2c1C(=O)NCc1ccc(-c2nc3n(n2)CCC(C(C)(F)F)C3)c(F)c1 (stereo not drawn) [Compound 106] | – | – | – | – | – | – | – | 1.92 | 12.1 | 1 | 0.03 (≈ 0.0149 µg/mL) | 12000 | – | – |
| CCc1nc2cc(F)ccn2c1C(=O)NCc1ccc(-c2nc3n(n2)CCCC3)cc1 [Compound 120] | – | – | – | – | – | – | – | 1.61 | 14.4 | 1 | 0.042 (≈ 0.0176 µg/mL) | 14500 | – | – |
| CCc1nc2ncc(C)cn2c1C(=O)NCc1ccc(-c2nc3n(n2)CCC(C)(C)C3)cc1 [Compound 144] | – | – | – | – | – | – | – | > 3 | < 7.7 | 1 | 0.05 (≈ 0.0222 µg/mL) | 12600 | – | – |
